Experimental data taken from patent US20230212571A1, “COMPOSITIONS AND METHODS FOR DELIVERING POLYNUCLEOTIDES” (NeOnc Technologies, Inc., priority 2020, published 2023).

What was measured:
AVM-BEC [1] = assay: Proteome Profiler Human Angiogenesis Array of AVM-BEC lysates; type: cell-based
Text: (§1) Human surgical specimens were obtained following written informed consent from patients in accordance with Declaration of Helsinki guidelines and the Institutional Review Board (HS-04B053), at Keck School of Medicine, USC. AVM-BECs were isolated from brain tissues of patients who underwent microsurgical AVM resection. Control BECs were isolated from the structurally normal […] of patients who underwent temporal lobectomy for intractable epilepsy. Endothelial cell (EC) isolation and culture were described^5,9. (Stapleton C J, Armstrong D L, Zidovetzki R, Liu C Y, Giannotta S L, Hofman F M. Thrombospondin-1 modulates the angiogenic phenotype of human cerebral arteriovenous malformation endothelial cells. Neurosurgery. 2011; 68(5):1342-1353) (Ferreira R, Santos T, Amar A, et al. Argonaute-2 promotes miR-18a entry in human brain endothelial cells. J Am Heart Assoc. 2014; 3(3):e000968) ECs were only used between passages 3-5. Experiments were performed under shear flow conditions (12 dyn/cm^2) to reproduce arterial flow^6. (Ferreira R, Santos T, Amar A, et al. MicroRNA-18a improves human cerebral arteriovenous malformation endothelial cell function. Stroke. 2014; 45(1):293-297). For hypoxic experiments, cells were cultured in a Galaxy 48R (Eppendorf) incubator at 3% O2. MicroRNAs were co-administered with Ago-2 to increase the cellular uptake of miR-18a^9 (Ferreira R, Santos T, Amar A, et al. Argonaute-2 promotes miR-18a entry in human brain endothelial cells. J Am Heart Assoc. 2014; 3(3):e000968) (FIG. 9). Methods regarding cell treatments and transfections were included in Data.
(§2) MiR-18a (hsa-miR-18a-5p, 40 nM, Dharmacon) or a scramble microRNA (40 nM, Dharmacon) in nuclease-free water was added with argonaute 2 (Ago-2, 0.4 nM, Abcam) as the microRNA carrier and stabilizer^9. (Ferreira R, Santos T, Amar A, et al. Argonaute-2 promotes miR-18a entry in human brain endothelial cells. J Am Heart Assoc. 2014; 3(3):e000968). No transfection reagent was used with miR-18a or scramble microRNA treatments. Recombinant human TSP-1 (R&D Systems) stock solution was prepared in PBS and further diluted in culture medium to be used at a final concentration of 1000 ng/mL. Cells were treated during 24 h for mRNA and 48 h for protein expression studies. NEO100 (NeOnc Technologies) stock was prepared in DMSO and used immediately or stored at −20° C.
(§3) The levels of angiogenesis-related proteins were analyzed using the Proteome Profiler™ Human Angiogenesis Array kit (R&D Systems) following the manufacturer's instructions. The protocol for western blot was published^10. (Marín-Ramos N I, Alonso D, Ortega-Gutiérrez S, et al. New inhibitors of angiogenesis with antitumor activity in vivo. J Med Chem. 2015; 58(9):3757-3766). Information about antibodies used was included in Table 1. Membranes were visualized and quantified using a C-Digit Blot scanner (Li-Cor) or a iBright CL1000 (Thermo Fisher Scientific).

AVM-BEC [2] = assay: Western blot of AVM-BEC lysates; type: cell-based, human
Text: as §1, §2, §3

BEC = assay: RT-qPCR mRNA expression in control BEC; type: cell-based, human
Text: as §1, §2
The extraction and analysis of total mRNA and microRNAs were described^9,13. […] For mRNA studies, 02-Microglobulin (B2M) was measured for sample normalization. […]

AVM-BEC [3] = type: cell-based
Protocol: The apoptotic and necrotic cell death was measured by flow cytometry using PI/Annexin V-Alexa Fluor 488 (ThermoFisher Scientific), following the manufacturer's instructions. After 24 h-treatments, cells were harvested, washed with cold PBS, and suspended in Annexin Binding Buffer (ThermoFisher Scientific) at a concentration of 1×10^6 cells/mL. Following addition of Annexin V and PI, cells were incubated at room temperature for 15 min in the ? dark, and additional 400 μL of 1× binding buffer was added to each sample. Positive controls of cell death were obtained treating cells with 50% ethanol. Ten thousand cells/sample were analyzed using a BD LSRII flow cytometer with the proper compensation controls and the FlowJo_V10 analysis software.
Cells were collected and analyzed for apoptosis, while supernatants were collected and analyzed for necrosis (Cell Death Detection ELISA^PLUS), and for PAI-1, VEGF (Quantikine ELISA Kit, R&D Systems) and TGF-β (Proteintech) protein content, following the manufacturers' instructions. Absorbance was measured using a Fluostar Omega microplate reader (BMG Labtech). Data were normalized to kit controls and number of producing cells.

Question: What does the source list for “hsa-miR-18a-5p (UAGGUGCAUCUAGUGCAGAUAG; chemistry not given here; listed as Homo sapiens) [small non-coding RNA molecule involved in post-transcriptional regulation of gene expression; Dharmacon]”?
Answer: bFGF levels, decrease compared to scramble miR-treated AVM-BEC (AVM-BEC [1]; shear flow 12 dyn/cm2, miR-18a 40 nM with Ago-2 0.4 nM, n=1): 2 fold; IGFBP-1 levels, upregulation compared to scramble miR-treated AVM-BEC (AVM-BEC [1]; shear flow, miR-18a 40 nM with Ago-2, n=1): 2 fold; TSP-1 protein levels in AVM-BEC lysates (AVM-BEC [1]; vs scramble miR, n=1): did not observe any relevant differences; downregulation of PAI-1 (AVM-BEC [1]; vs scramble miR, n=1): 20%; upregulation of endothelin-1 (ET-1) (AVM-BEC [1]; vs scramble miR, n=1): > 20%; upregulation of pentraxin 3 (PTX3) (AVM-BEC [1]; vs scramble miR, n=1): > 20%; MMP9 protein levels (western blot) (AVM-BEC [2]; AVM-BEC): not significantly (P=0.9409) affected; ratio MMP2/MMP9 protein levels (AVM-BEC [2]; AVM-BEC): lowers the ratio MMP2/MMP9; ADAM10 protein levels (western blot) (AVM-BEC [2]; AVM-BEC, P<0.001): significantly decreased; MMP2 protein levels (western blot) (AVM-BEC [2]; AVM-BEC, P=0.0132): significantly decreased; levels of TGF-β (western blot) (AVM-BEC [2]; AVM-BEC, P>0.9999): not significantly changed; phosphorylation levels of Smad3 (AVM-BEC [2]; AVM-BEC, P>0.9999): Neither the phosphorylation levels of Smad3 nor the total levels of Smad4 were altered; total levels of Smad4 (AVM-BEC [2]; AVM-BEC, P>0.9999): Neither the phosphorylation levels of Smad3 nor the total levels of Smad4 were altered; phosphorylation levels of Smad1/5 (AVM-BEC [2]; AVM-BEC, vs scramble): significantly (P<0.0001) decreased; PAI-1 protein levels (western blot) (AVM-BEC [2]; patient-derived AVM-BEC, vs scramble microRNA, P<0.001, n=8): decreased; ALK1 mRNA expression (BEC; P=0.0482): decreased; BMP4, ALK2, ALK5 and MGP mRNA expression (BEC; P>0.05): No significant differences; HIF-1α expression (BEC; hypoxia 3% O2): remained unaltered; HIF-1α expression (BEC; normoxia, P>0.9999): without affecting BEC; cell death (apoptosis, necrosis) (AVM-BEC [3]): does not increase cell death
